The source of these data is patent US8092020B2 (priority 2002, dated 2012).

The test system of data set [1] is Sprague-Dawley rat. Particulars: in vivo.
The next data set has as its target Hemoglobin (Hgb) (Homo sapiens, UniProt P68871+P69905). The settings on record: cited from earlier work.
The subject of data set [2] is Sprague-Dawley rat. Particulars: in vivo, ip.
The test system of data set [3] is Sprague-Dawley rat. Particulars: in vivo, ip. The source holds these as a separate data set.

Chain of Hemoglobin (Hgb) (P68871 2-147): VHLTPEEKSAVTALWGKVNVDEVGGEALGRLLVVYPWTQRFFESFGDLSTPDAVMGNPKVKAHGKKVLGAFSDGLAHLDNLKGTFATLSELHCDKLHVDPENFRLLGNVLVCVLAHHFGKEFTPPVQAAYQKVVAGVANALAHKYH
Chain of Hemoglobin (Hgb) (P69905 2-142): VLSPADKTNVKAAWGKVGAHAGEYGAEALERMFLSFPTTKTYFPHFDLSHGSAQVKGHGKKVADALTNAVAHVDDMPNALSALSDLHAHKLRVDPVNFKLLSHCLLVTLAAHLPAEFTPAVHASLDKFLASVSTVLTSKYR

As for `[C-]#[O+]` [CO, Carbon monoxide], in the data set with Sprague-Dawley rat [1], the “concentration causing significant changes in both arterial and venous coloration” value is not below 500 ppm; the “extrapolated EC50 for fundal artery coloration changes” value is listed as 289±37 ppm; the “lowest level with statistically significant arterial coloration changes (p<0.05)” value is recorded as 250 ppm; the “maximal observed change in arterial coloration in all animals” value was determined as 38.5%. Besides, in the data set on Sprague-Dawley rat [1], the “near maximal change in arterial coloration in animals which did not expire” value amounted to 92.3%. In addition, the “affinity of Hgb for CO relative to that for oxygen” value at Hemoglobin (Hgb) is listed as 200-250 times greater.
Consider botulinum toxin, for which the “time to animal expiration post-injection” value with Sprague-Dawley rat [2] is “at least 14 hours”. Besides, the “lowest dose with statistically significant decreases in the pupillary light reflex (p<0.05)” value in the data set on Sprague-Dawley rat [3] worked out at 10 pg/kg.
